Experimental data: patent US11208376B2, “Use of a metal supplement in animal feed” (Nouryon Chemicals International B.V., priority 2009, dated 2021)
Marks after values point to notes of the source that are not given here. Each block holds one compound with its values, some of them ahead of it.

Legend:
[1] = without the presence of phytate; result in words
Procedure: A small excess of 2% of the complexing or chelating agent intake was used to prepare the metal-containing solutions. This ensures a complete complexation or chelation of the metal ions. The mixture was dissolved in part of the demineralized water. The pH was adjusted in order to reach a pH value between approximately 4 and 5. All solutions were filled up with demineralized water to 400 g.

[2] = Precipitation test of zinc sources with two-fold molar excess of phytic acid, soluble Zn by FAAS; assay type: physicochemical; conditions: for Soluble Zn(II) after subjecting complexed or chelated Zn(II) to a two-fold molar excess of phytic acid: one day at ambient temperature
Procedure: (§1) The following 3 concentrations of the final metal concentration were tested, i.e. high (H) at 25 mmol/kg, medium (M) at 5 mmol/kg, and low (L) at 0.5 mmol/kg. For each concentration and pH a separate phytic acid stock solution was prepared by diluting the calculated amount of phytic acid with de-mineralized water, setting the pH with diluted NH4OH solutions, and filling up with demineralized water up to the calculated amount. […] The pH was not adjusted any further. Then an equal number of 0.0125 mol/kg solutions were prepared by diluting the above solutions with demineralized water. […] On all 4 zinc-containing and 3 copper-containing solutions in total 6 precipitation tests were carried out, i.e. at levels H, M, and L and for each level at pH=4 and at pH=6. These tests were marked H4, H6, M4, M6, L4, and L6, respectively. In total 42 samples were obtained in this way. After standing for one day the precipitate was removed and the mother liquor was analyzed for its zinc or copper content by FAAS (Flame Atomic Absorption Spectroscopy). […] The total weight was exactly determined again. The 50 ml test tubes were filled according to Table 1 below.

[3] = Precipitation test of copper sources with two-fold molar excess of phytic acid, soluble Cu by FAAS; assay type: physicochemical; conditions: one day at ambient temperature
Procedure: as §1, with “was” for “was not”, “to 4.97 with 0.5 M H2SO4.” for “any further.”

[4] = H4: pH 4, metal 25 mmol/kg, phytic acid 50 mmol/kg
[5] = H6: pH 6, metal 25 mmol/kg, phytic acid 50 mmol/kg
[6] = L4: pH 4, metal 0.5 mmol/kg, phytic acid 1 mmol/kg
[7] = L6: pH 6, metal 0.5 mmol/kg, phytic acid 1 mmol/kg
[8] = M4: pH 4, metal 5 mmol/kg, phytic acid 10 mmol/kg
[9] = M6: pH 6, metal 5 mmol/kg, phytic acid 10 mmol/kg

SMILES: CSCC[C@H](N)C(=O)O.[Cu] [copper methionine]
Solubility in water [1]: insoluble in water

SMILES: CSCC[C@H](N)C(=O)[O-].CSCC[C@H](N)C(=O)[O-].[Zn+2] [Zn(Methionine)2]
Soluble Zn(II) after subjecting complexed or chelated Zn(II) to a two-fold molar excess of phytic acid [2, 4]: 21* % (mol/mol) | Soluble Zn(II) after subjecting complexed or chelated Zn(II) to a two-fold molar excess of phytic acid [2, 5]: 32* % (mol/mol) | Soluble Zn(II) after subjecting complexed or chelated Zn(II) to a two-fold molar excess of phytic acid [2, 6]: 99 % (mol/mol) | Soluble Zn(II) after subjecting complexed or chelated Zn(II) to a two-fold molar excess of phytic acid [2, 7]: 63 % (mol/mol) | Soluble Zn(II) after subjecting complexed or chelated Zn(II) to a two-fold molar excess of phytic acid [2, 8]: 55* % (mol/mol) | Soluble Zn(II) after subjecting complexed or chelated Zn(II) to a two-fold molar excess of phytic acid [2, 9]: 13* % (mol/mol) | Appearance (clear solution or precipitate) of zinc source combined with phytic acid ([2]; levels H, M, L, result in words): immediately a precipitate was formed

Soluble Cu(II) after subjecting complexed or chelated Cu(II) to a two-fold molar excess of phytic acid [3, 4]: 64* % (mol/mol) | Soluble Cu(II) after subjecting complexed or chelated Cu(II) to a two-fold molar excess of phytic acid [3, 5]: 26* % (mol/mol) | Soluble Cu(II) after subjecting complexed or chelated Cu(II) to a two-fold molar excess of phytic acid [3, 6]: 97 % (mol/mol) | Soluble Cu(II) after subjecting complexed or chelated Cu(II) to a two-fold molar excess of phytic acid [3, 7]: 80 % (mol/mol) | Soluble Cu(II) after subjecting complexed or chelated Cu(II) to a two-fold molar excess of phytic acid [3, 8]: 97* % (mol/mol) | Soluble Cu(II) after subjecting complexed or chelated Cu(II) to a two-fold molar excess of phytic acid [3, 9]: 36* % (mol/mol)
SMILES: O=S(=O)([O-])[O-].[Cu+2] [CuSO4]
